Measurements from US11046680B1, “Heteroaryl-substituted triazoles as APJ receptor agonists” (priority 2016, dated 2021).

Molecular target: human APJ receptor (Homo sapiens (Human), UniProt P35414)
Test: biochemical
Type: biochemical
Settings: [35S]GTPγS binding, CHO membranes expressing human APJ receptor; read-out: Activity hAPJ SPA EC50 IP
In short: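 GTPγS binding on membranes from CHO cells stably expressing FLAG-tagged human APJ, with optimized GDP, MgCl2 and NaCl; incubated 90 min at RT before imaging read-out.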

human APJ receptor, sequence (P35414 whole entry): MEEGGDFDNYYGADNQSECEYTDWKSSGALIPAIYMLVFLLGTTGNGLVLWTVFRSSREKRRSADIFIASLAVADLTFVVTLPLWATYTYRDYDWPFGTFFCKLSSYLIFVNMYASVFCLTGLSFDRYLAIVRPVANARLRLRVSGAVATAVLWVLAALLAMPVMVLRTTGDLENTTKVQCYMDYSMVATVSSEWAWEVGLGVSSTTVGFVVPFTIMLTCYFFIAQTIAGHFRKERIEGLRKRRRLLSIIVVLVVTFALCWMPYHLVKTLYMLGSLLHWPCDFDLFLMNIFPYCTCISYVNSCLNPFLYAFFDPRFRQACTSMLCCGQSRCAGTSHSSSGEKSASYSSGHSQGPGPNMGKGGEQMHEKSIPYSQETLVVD

| SMILES | EC50 [nM] |
| --- | --- |
| COc1ccc(S(C)(=O)=O)cc1-n1c(NS(=O)(=O)CCc2ccc(F)cc2)nnc1-c1cccs1 [Example 358.0, 2-(4-Fluorophenyl)-N-(4-(2-methoxy-5-(methylsulfonyl)phenyl)-5-(thiophen-2-yl)-4H-1,2,4-triazol-3-yl)ethanesulfonamide] | 34 |
| COc1cccc(OC)c1-n1c(NS(=O)(=O)[C@@H](C)[C@H](OC)c2ncc(C)cn2)nnc1-c1n[nH]c2ccc(Cl)cc12 [Example 412.0, (1R,2S)-N-(5-(5-chloro-1H-indazol-3-yl)-4-(2,6-dimethoxyphenyl)-4H-1,2,4-triazol-3-yl)-1-methoxy-1-(5-methylpyrimidin-2-yl)propane-2-sulfonamide] | 140 |
| COc1cccc(OC)c1-n1c(NS(=O)(=O)[C@H](C)Cc2ncc(F)cn2)nnc1-c1nc(C)cs1 (single isomer, unassigned) [Example 102.0, (R)-N-(4-(2,6-Dimethoxyphenyl)-5-(4-methylthiazol-2-yl)-4H-1,2,4-triazol-3-yl)-1-(5-fluoropyrimidin-2-yl)propane-2-sulfonamide or (S)-N-(4-(2,6-dimethoxyphenyl)-5-(4-methylthiazol-2-yl)-4H-1,2,4-triazol-3-yl)-1-(5-fluoropyrimidin-2-yl)propane-2-sulfonamide] | 4.1 |
| Cc1cnc([C@@H](C)[C@H](C)S(=O)(=O)Nc2nnc(-c3ccn(C)n3)n2-c2c(F)cccc2F)cn1 [Example 231.0, (2S,3R)-N-(4-(2,6-difluorophenyl)-5-(1-methyl-1H-pyrazol-3-yl)-4H-1,2,4-triazol-3-yl)-3-(5-methyl-2-pyrazinyl)-2-butanesulfonamide] | 46 |
| COc1cccc(OC)c1-n1c(NS(=O)(=O)[C@H](C)Cc2ncc(F)cn2)nnc1-c1cc(C)no1 (single isomer, unassigned) [Example 63.0, (R)-N-(4-(2,6-dimethoxyphenyl)-5-(3-methylisoxazol-5-yl)-4H-1,2,4-triazol-3-yl)-1-(5-fluoropyrimidin-2-yl)propane-2-sulfonamide or (R)-N-(4-(2,6-dimethoxyphenyl)-5-(3-methylisoxazol-5-yl)-4H-1,2,4-triazol-3-yl)-1-(5-fluoropyrimidin-2-yl)propane-2-sulfonamide] | 85 |
| COc1cccc(OC)c1-n1c(NS(=O)(=O)C[C@H](OC)c2ccc(F)cc2S(C)(=O)=O)nnc1-c1ccn(C)n1 (single isomer, unassigned) [Example 372.0, (R)-N-(4-(2,6-Dimethoxyphenyl)-5-(1-methyl-1H-pyrazol-3-yl)-4H-1,2,4-triazol-3-yl)-2-(4-fluoro-2-(methylsulfonyl)phenyl)-2-methoxyethanesulfonamide or (S)-N-(4-(2,6-dimethoxyphenyl)-5-(1-methyl-1H-pyrazol-3-yl)-4H-1,2,4-triazol-3-yl)-2-(4-fluoro-2-(methylsulfonyl)phenyl)-2-methoxyethanesulfonamide] | 1.4 |
| COc1ncnc(OC)c1-n1c(NS(=O)(=O)[C@@H](C)[C@H](C)c2ncc(C)cn2)nnc1-c1n[nH]c2ccccc12 [Example 427.0, (2S,3R)-N-(4-(4,6-dimethoxypyrimidin-5-yl)-5-(1H-indazol-3-yl)-4H-1,2,4-triazol-3-yl)-3-(5-methylpyrimidin-2-yl)butane-2-sulfonamide] | 21 |
| COc1cccc(OC)c1-n1c(NS(=O)(=O)[C@@H](C)[C@H](C)c2ncc(Cl)cn2)nnc1-c1cc(C)on1 [Example 498.0, (2S,3R)-3-(5-chloropyrimidin-2-yl)-N-(4-(2,6-dimethoxyphenyl)-5-(5-methylisoxazol-3-yl)-4H-1,2,4-triazol-3-yl)butane-2-sulfonamide] | 0.44 |
| COc1cccc(OC)c1-n1c(NS(=O)(=O)[C@H](C)[C@@H](C)c2ncc(C)cn2)nnc1-c1nc(C)cs1 (stereo in doubt) [Example 1.0, (2R,3 S)-N-(4-(2,6-dimethoxyphenyl)-5-(4-methylthiazol-2-yl)-4H-1,2,4-triazol-3-yl)-3-(5-methylpyrimidin-2-yl)butane-2-sulfonamide] | 0.13 |
